{
  "source": "paper PMC13249469",
  "about": "“High-throughput ligand diversification to discover chemical inducers of proximity” (Nature Chemical Biology, 2026)",
  "biological_target": "T1, CRBN (Cereblon) (Homo sapiens, UniProt Q96SW2)",
  "T1 construct": "CRBN–DDB1; with DDB1",
  "assay": "competitive FP displacement of BODIPY-labelled IMiD probe, without ENL YEATS",
  "assay_type": "binding",
  "data": [
    {"smiles": "O=C(COc1cccc2c1C(=O)N(C1CCC(=O)NC1=O)C2=O)NCCOCCOCCNS(=O)(=O)Nc1cccc(-c2cn3cc(C(=O)NC4CCC4)ccc3n2)c1", "note": "(stereo not shown) [SR-1114]", "values": [
      {"measurement": "IC50", "result": 155, "unit": "nM"}
    ]}
  ]
}
